The test deals with 349418-098-R-PDC spheroids, viability, % test/control. Briefly: Anticancer human tumor 349418-098-R-PDC patient-derived lung adenocarcinoma cell line growth inhibition [IpAb]. As to conditions: spheroids with HUVEC and MSC; for viability, T/C: stronger effect = lower value. In short, it runs like this:
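Multi-cell spheroids of 60% tumour cells, 25% HUVEC and 15% MSC in ultra-low-attachment U-bottom wells, treated with agents combined with ipatasertib or abemaciclib. Half-log ranges top out near clinical Cmax, or 10 microM when Cmax is unknown.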

What is called IC50 is the concentration that inhibits the measured activity by half. A word on the viability, T/C: it is the ratio of treated to control.

“And” between values parts separate entries of the source, which are not always exact repeats. Equal entries are not always repeated.
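Also: spheroids exposed to compounds for 7 days.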

On to `CC(C)n1nc(-c2ccc3oc(N)nc3c2)c2c(N)ncnc21` + CCN1CCN(Cc2ccc(Nc3ncc(F)c(-c4cc(F)c5nc(C)n(C(C)C)c5c4)n3)nc2)CC1, for which the IC50 by setting is: (curve of first compound, second compound 0.01 µM) 0.659 nM; (curve of first compound, second compound 0.0316 µM) under 0.316 nM; (curve of first compound, second compound 0.1 µM) under 0.316 nM; (curve of first compound, second compound 0.316 µM) under 0.316 nM; (curve of first compound, second compound 1 µM) under 0.316 nM. In addition, the viability, T/C is 78.5% (second compound 0.01 µM, first compound 0.000316 µM); 33.8% (second compound 0.01 µM, first compound 0.001 µM); 13.3% (second compound 0.01 µM, first compound 0.00316 µM); 8.46% (second compound 0.01 µM, first compound 0.01 µM); 7.29% (second compound 0.01 µM, first compound 0.0316 µM); 6.79% (second compound 0.01 µM, first compound 0.1 µM). In addition, the viability, T/C runs as follows: (second compound 0.0316 µM, first compound 0.000316 µM) 38.4%; (second compound 0.0316 µM, first compound 0.001 µM) 22.3%; (second compound 0.0316 µM, first compound 0.00316 µM) 10.4%; (second compound 0.0316 µM, first compound 0.01 µM) 6.7%; (second compound 0.0316 µM, first compound 0.0316 µM) 6.75%; (second compound 0.0316 µM, first compound 0.1 µM) 6.38%. Further, the viability, T/C was 26.9% (second compound 0.1 µM, first compound 0.000316 µM); 14.9% (second compound 0.1 µM, first compound 0.001 µM); 10.1% (second compound 0.1 µM, first compound 0.00316 µM); 7.85% (second compound 0.1 µM, first compound 0.01 µM); 6.9% (second compound 0.1 µM, first compound 0.0316 µM); 6.67% (second compound 0.1 µM, first compound 0.1 µM). The viability, T/C (second compound 0.316 µM, first compound 0.000316 µM) was 20.2%; the viability, T/C (second compound 0.316 µM, first compound 0.001 µM) is 13.6%; the viability, T/C (second compound 0.316 µM, first compound 0.00316 µM) is 9.36%; the viability, T/C (second compound 0.316 µM, first compound 0.01 µM) is 7.22%; the viability, T/C (second compound 0.316 µM, first compound 0.0316 µM) was 7.46%; the viability, T/C (second compound 0.316 µM, first compound 0.1 µM) is 6.4%. The viability, T/C is, setting by setting: (second compound 1 µM, first compound 0.000316 µM) 14.4%; (second compound 1 µM, first compound 0.001 µM) 12.4%; (second compound 1 µM, first compound 0.00316 µM) 8.8%; (second compound 1 µM, first compound 0.01 µM) 7.28%; (second compound 1 µM, first compound 0.0316 µM) 7.88%; (second compound 1 µM, first compound 0.1 µM) 6.96%.
For `CCCS(=O)(=O)Nc1ccc(F)c(C(=O)c2c[nH]c3ncc(-c4ccc(Cl)cc4)cc23)c1F`, the viability, T/C was 69.3% and 61.6% (compound 0.0316 µM); 52% and 49.9% (compound 0.1 µM); 51.7% and 55.5% (compound 0.316 µM); 49.4% and 45.2% (compound 1 µM); 50.4% and 46.2% (compound 3.16 µM); 22.7% and 19.6% (compound 10 µM). The IC50 (curve of compound) was 1850 nM and 1090 nM.

These data come from PubChem BioAssay AID2060340 (Molecular Pharmacology Branch, DTP, NCI, 2025).
